Test results from US12581252B2, “Substituted pyrrolo[3,4-b]pyridines as PI3K-α inhibitors” (Relay Therapeutics, Inc., priority 2020, dated 2026).

Molecular target: H1047R PIK3CA enzyme (Homo sapiens, UniProt P42336, H1047R)
Assay: ADP-Glo Biochemical PIK3CA Kinase Assay

Sequence of H1047R PIK3CA enzyme (P42336 whole entry H1047R): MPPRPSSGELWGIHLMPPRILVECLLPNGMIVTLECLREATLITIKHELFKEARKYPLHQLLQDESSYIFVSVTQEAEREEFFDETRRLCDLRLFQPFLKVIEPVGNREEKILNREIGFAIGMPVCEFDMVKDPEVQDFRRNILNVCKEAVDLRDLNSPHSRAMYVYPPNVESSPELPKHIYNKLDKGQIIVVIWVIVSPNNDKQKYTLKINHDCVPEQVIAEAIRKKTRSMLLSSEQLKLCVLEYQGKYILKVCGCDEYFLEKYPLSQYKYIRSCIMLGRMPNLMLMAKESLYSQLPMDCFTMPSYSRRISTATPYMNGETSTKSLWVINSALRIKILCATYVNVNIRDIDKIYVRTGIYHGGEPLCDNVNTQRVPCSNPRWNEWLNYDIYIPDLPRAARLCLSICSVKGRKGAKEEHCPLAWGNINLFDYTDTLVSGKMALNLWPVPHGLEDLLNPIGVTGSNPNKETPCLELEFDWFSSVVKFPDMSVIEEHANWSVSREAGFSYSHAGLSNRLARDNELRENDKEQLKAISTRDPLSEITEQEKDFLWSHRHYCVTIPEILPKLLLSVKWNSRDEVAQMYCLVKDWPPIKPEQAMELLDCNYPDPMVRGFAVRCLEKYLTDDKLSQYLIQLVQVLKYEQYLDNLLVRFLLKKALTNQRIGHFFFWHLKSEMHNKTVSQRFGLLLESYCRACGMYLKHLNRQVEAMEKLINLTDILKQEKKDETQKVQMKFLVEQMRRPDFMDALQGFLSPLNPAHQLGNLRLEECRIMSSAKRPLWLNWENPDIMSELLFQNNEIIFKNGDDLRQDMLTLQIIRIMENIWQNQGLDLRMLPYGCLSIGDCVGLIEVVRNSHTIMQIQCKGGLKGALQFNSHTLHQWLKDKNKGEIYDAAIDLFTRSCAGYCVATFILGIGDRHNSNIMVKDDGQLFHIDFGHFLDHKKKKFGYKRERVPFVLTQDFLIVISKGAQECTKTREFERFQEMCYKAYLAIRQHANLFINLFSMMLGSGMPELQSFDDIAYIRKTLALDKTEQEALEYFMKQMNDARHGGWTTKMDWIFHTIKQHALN
Sequence of H1047R PIK3CA enzyme (P27986 whole entry partner): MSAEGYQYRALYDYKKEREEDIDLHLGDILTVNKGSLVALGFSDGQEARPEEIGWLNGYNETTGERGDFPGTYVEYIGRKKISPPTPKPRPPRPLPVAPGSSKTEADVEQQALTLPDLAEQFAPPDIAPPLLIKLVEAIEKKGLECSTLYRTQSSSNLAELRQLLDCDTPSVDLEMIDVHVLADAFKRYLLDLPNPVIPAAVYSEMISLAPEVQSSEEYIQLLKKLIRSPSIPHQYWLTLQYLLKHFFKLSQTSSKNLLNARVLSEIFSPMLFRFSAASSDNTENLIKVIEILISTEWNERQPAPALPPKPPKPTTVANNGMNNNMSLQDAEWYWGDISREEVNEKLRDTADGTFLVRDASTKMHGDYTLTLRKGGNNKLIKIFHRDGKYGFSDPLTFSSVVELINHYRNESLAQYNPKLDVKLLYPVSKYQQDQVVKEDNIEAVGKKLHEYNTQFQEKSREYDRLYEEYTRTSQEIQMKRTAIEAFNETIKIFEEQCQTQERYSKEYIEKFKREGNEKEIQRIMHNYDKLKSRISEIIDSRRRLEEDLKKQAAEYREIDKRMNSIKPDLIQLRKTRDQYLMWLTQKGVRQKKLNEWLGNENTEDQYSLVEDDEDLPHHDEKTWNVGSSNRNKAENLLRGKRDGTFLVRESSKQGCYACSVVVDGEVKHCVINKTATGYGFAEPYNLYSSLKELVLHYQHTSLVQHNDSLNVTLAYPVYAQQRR

SMILES	IC50 [µM]
CN(C)S(=O)(=O)c1cc(-c2ccc3ncnn3c2)cc2c1C(c1cc(F)ccc1Cl)NC2=O (centres unmarked) [Compound I-1968]	10 to 100
O=C(Nc1cccc2c1C(C13CC4CC(CC(C4)C1)C3)NC2=O)c1cc(F)cc(C(F)(F)F)c1 (centres unmarked) [Compound I-1969]	10 to 100
NS(=O)(=O)c1cc(-c2ccc3ncnn3c2)cc2c1C(c1cc(F)ccc1Cl)NC2=O (centres unmarked) [Compound I-1970]	10 to 100
COc1cc(-c2ccc3ncnn3c2)cc2c1C(c1cc(F)ccc1Cl)NC2=O (centres unmarked) [Compound I-1973]	10 to 100
O=C1NC(c2cc(F)ccc2Cl)c2c(Nc3cccc(=O)[nH]3)cc(Br)cc21 (centres unmarked) [Compound I-1974]	1 to 10
CNS(=O)(=O)c1cc(-c2ccc3ncnn3c2)cc2c1C(c1cc(F)ccc1Cl)NC2=O (centres unmarked) [Compound I-1977]	10 to 100
O=C(NCc1ccccc1)c1cc(Br)cc2c1C(c1cc(F)ccc1Cl)NC2=O (centres unmarked) [Compound I-1979]	10 to 100
O=C1NC(c2cc(F)ccc2Cl)c2c(Cn3ccccc3=O)cc(-c3ccc4ncnn4c3)cc21 (centres unmarked) [Compound I-1980]	10 to 100
O=C1NC(c2cc(F)ccc2Cl)c2c(COc3cc4ccccc4cn3)cc(-c3ccc4ncnn4c3)cc21 (centres unmarked) [Compound I-1981]	1 to 10
NC1CCCCC1C(=O)Nc1cc(-c2ccc3ncnn3c2)cc2c1C(c1cc(F)ccc1Cl)NC2=O (centres unmarked) [Compound I-1982]	10 to 100
NC(=O)CC(=O)Nc1cc(-c2ccc3ncnn3c2)cc2c1C(c1cc(F)ccc1Cl)NC2=O (centres unmarked) [Compound I-1983]	10 to 100
O=C(Nc1cc(-c2cnc3ncc(Cl)n3c2)cc2c1[C@@H](c1cc(F)ccc1Cl)NC2=O)c1cc(F)cc(C(F)(F)F)c1 [Compound I-1984]	0.5 to 1
O=C(Nc1cc(-c2cnc3ncc(Cl)n3c2)cc2c1[C@H](c1cc(F)ccc1Cl)NC2=O)c1cc(F)cc(C(F)(F)F)c1 [Compound I-1985]	≤ 0.1
O=C(Nc1cc(-c2ccc3nc(C(F)F)nn3c2)cc2c1[C@@H](c1cc(F)ccc1Cl)NC2=O)c1cc(F)cc(C(F)(F)F)c1 [Compound I-1986]	1 to 10
O=C(Nc1cc(-c2ccc3nc(C(F)F)nn3c2)cc2c1[C@H](c1cc(F)ccc1Cl)NC2=O)c1cc(F)cc(C(F)(F)F)c1 [Compound I-1987]	≤ 0.1
CC#Cc1cc(-c2ccc3ncnn3c2)cc2c1C(c1cc(F)ccc1Cl)NC2=O (centres unmarked) [Compound I-1988]	10 to 100
O=C1NC(c2cc(F)ccc2Cl)c2c(NC(=O)[C@H]3C[C@@H](C(F)(F)F)C3)cc(Br)cc21 (some centres unmarked) [Compound I-1989]	1 to 10
O=C1NC(c2cc(F)ccc2Cl)c2c1cc(-c1ccc3ncnn3c1)cc2N1C(=O)CCC1=O (centres unmarked) [Compound I-1990]	10 to 100
O=C1NC(c2cc(F)ccc2Cl)c2c(Nc3ccn(C4CC4)n3)cc(-c3ccc4ncnn4c3)cc21 (centres unmarked) [Compound I-1993]	10 to 100
O=C1NC(c2cc(F)ccc2Cl)c2c(Nc3ccn(CCO)n3)cc(-c3ccc4ncnn4c3)cc21 (centres unmarked) [Compound I-1994]	10 to 100
CS(=O)(=O)n1cc(-c2cc(NC(=O)c3cc(F)cc(C(F)(F)F)c3)c3c(c2)C(=O)N[C@@H]3c2cc(F)ccc2Cl)cn1 [Compound I-1995]	0.5 to 1
CS(=O)(=O)n1cc(-c2cc(NC(=O)c3cc(F)cc(C(F)(F)F)c3)c3c(c2)C(=O)N[C@H]3c2cc(F)ccc2Cl)cn1 [Compound I-1996]	≤ 0.1
O=C1NC(c2cc(F)ccc2Cl)c2c1cc(-c1ccc3ncnn3c1)cc2C1=CCNCC1 (centres unmarked) [Compound I-1997]	10 to 100

SMILES	IC50 [µM]
O=C1NC(c2cc(F)ccc2Cl)c2c1cc(-c1ccc3ncnn3c1)cc2C1=CCCNC1 (centres unmarked) [Compound I-1998]	10 to 100
O=C1NC(c2cc(F)ccc2Cl)c2c(CN3CCCCC3=O)cc(-c3ccc4ncnn4c3)cc21 (centres unmarked) [Compound I-1999]	10 to 100
N#CCC(=O)Nc1cc(-c2ccc3ncnn3c2)cc2c1C(c1cc(F)ccc1Cl)NC2=O (centres unmarked) [Compound I-2000]	10 to 100
O=C1NC(c2cc(F)ccc2Cl)c2c1cc(-c1ccc3ncnn3c1)cc2N(CC(=O)N1CCCCC1)C(=O)C(F)(F)F (centres unmarked) [Compound I-2001]	10 to 100
O=C(Nc1cc(-c2ccnc(C(F)F)c2)cc2c1[C@@H](c1cc(F)ccc1Cl)NC2=O)c1cc(F)cc(C(F)(F)F)c1 [Compound I-2002]	1 to 10
O=C(Nc1cc(-c2ccnc(C(F)F)c2)cc2c1[C@H](c1cc(F)ccc1Cl)NC2=O)c1cc(F)cc(C(F)(F)F)c1 [Compound I-2003]	≤ 0.1
O=C(Nc1cc(-c2ccc(C(F)F)nc2)cc2c1[C@@H](c1cc(F)ccc1Cl)NC2=O)c1cc(F)cc(C(F)(F)F)c1 [Compound I-2004]	1 to 10
O=C(Nc1cc(-c2ccc(C(F)F)nc2)cc2c1[C@H](c1cc(F)ccc1Cl)NC2=O)c1cc(F)cc(C(F)(F)F)c1 [Compound I-2008]	≤ 0.1
O=C1NC(c2cc(F)ccc2Cl)c2c(NC3CCS(=O)(=O)CC3)cc(-c3ccc4ncnn4c3)cc21 (centres unmarked) [Compound I-2010]	10 to 100
[2H]c1nc2cnc(-c3cc(NC(=O)c4cc(F)cc(C(F)(F)F)c4)c4c(c3)C(=O)NC4c3cc(F)ccc3Cl)cn2n1 (centres unmarked) [Compound I-2012]	≤ 0.1
O=C1NC(c2cc(F)ccc2Cl)c2c1cc(-c1ccc3ncnn3c1)cc2-n1ccc2c(F)cc(C(F)(F)F)cc2c1=O (centres unmarked) [Compound I-2016]	1 to 10
O=C1NC(c2cc(F)ccc2Cl)c2c(COc3ccccc3)cc(-c3ccc4ncnn4c3)cc21 (centres unmarked) [Compound I-2017]	10 to 100
O=C1NC(c2cc(F)ccc2Cl)c2c1cc(-c1ccc3ncnn3c1)cc2N1CCn2ncnc2C1 (centres unmarked) [Compound I-2018]	10 to 100
O=C1NC(c2cc(F)ccc2Cl)c2c1cc(-c1ccc3ncnn3c1)cc2N1CCn2cnnc2C1 (centres unmarked) [Compound I-2019]	10 to 100
CN1CCC=C(c2cc(-c3ccc4ncnn4c3)cc3c2C(c2cc(F)ccc2Cl)NC3=O)C1 (centres unmarked) [Compound I-2020]	10 to 100
CN1CC=C(c2cc(-c3ccc4ncnn4c3)cc3c2C(c2cc(F)ccc2Cl)NC3=O)CC1 (centres unmarked) [Compound I-2021]	10 to 100
N#CCOc1cc(-c2ccc3ncnn3c2)cc2c1C(c1cc(F)ccc1Cl)NC2=O (centres unmarked) [Compound I-2022]	10 to 100
O=C1NC(c2cc(F)ccc2Cl)c2c(NC3CCNCC3)cc(-c3ccc4ncnn4c3)cc21 (centres unmarked) [Compound I-2024]	10 to 100
O=C1NC(c2cc(F)ccc2Cl)c2c(Nc3ccncc3)cc(Br)cc21 (centres unmarked) [Compound I-2025]	10 to 100
O=C1NC(c2cc(F)ccc2Cl)c2c(Cn3ccc4ccccc4c3=O)cc(-c3ccc4ncnn4c3)cc21 (centres unmarked) [Compound I-2026]	10 to 100
O=C1NC(c2cc(F)ccc2Cl)c2c(NC(=O)[C@H]3C[C@@H](O)C[C@@H](C(F)(F)F)C3)cc(Br)cc21 (some centres unmarked) [Compound I-2027]	10 to 100
O=C1N[C@@H](c2cc(F)ccc2Cl)c2c(NC(=O)[C@@H]3CCC[C@H](C(F)(F)F)C3)cc(-c3ccc4ncnn4c3)cc21 [Compound I-2030]	0.5 to 1
O=C1N[C@H](c2cc(F)ccc2Cl)c2c(NC(=O)[C@@H]3CCC[C@H](C(F)(F)F)C3)cc(-c3ccc4ncnn4c3)cc21 [Compound I-2031]	1 to 10

SMILES	IC50 [µM]
O=C1NC(c2cc(F)ccc2Cl)c2c(NCC(=O)N3CCCCC3)cc(-c3ccc4ncnn4c3)cc21 (centres unmarked) [Compound I-2038]	10 to 100
O=C1NC(c2cc(F)ccc2Cl)c2c1cc(-c1ccc3ncnn3c1)cc2N1CCn2cc(C(F)(F)F)nc2C1 (centres unmarked) [Compound I-2039]	10 to 100
O=C1NC(c2cc(F)ccc2Cl)c2c1cc(-c1ccc3ncnn3c1)cc2N1CCn2c(nnc2C(F)(F)F)C1 (centres unmarked) [Compound I-2040]	10 to 100
O=C(Nc1cccc2c1C(C(=O)N1CCCCC1)NC2=O)c1cc(F)cc(C(F)(F)F)c1 (centres unmarked) [Compound I-2041]	10 to 100
NC1CN(C(=O)Nc2cc(Br)cc3c2C(c2cc(F)ccc2Cl)NC3=O)c2ccccc21 (centres unmarked) [Compound I-2042]	1 to 10
O=C1NC(c2cc(F)ccc2Cl)c2c(OC3CCOc4ccccc43)cc(-c3ccc4ncnn4c3)cc21 (centres unmarked) [Compound I-2043]	10 to 100
O=C(CC1(C(F)(F)F)CC1)Nc1cc(-c2ccc3ncnn3c2)cc2c1C(c1cc(F)ccc1Cl)NC2=O (centres unmarked) [Compound I-2044]	1 to 10
O=C1NC(c2cc(F)ccc2Cl)c2c(NC(=O)C3CCS(=O)(=O)CC3)cc(-c3ccc4ncnn4c3)cc21 (centres unmarked) [Compound I-2045]	1 to 10
O=C1NC(c2cc(F)ccc2Cl)c2c1cc(-c1ccc3ncnn3c1)cc2N1CCN(C(=O)C(F)(F)F)CC1 (centres unmarked) [Compound I-2046]	10 to 100
CC(=O)N1CCN(c2cc(-c3ccc4ncnn4c3)cc3c2C(c2cc(F)ccc2Cl)NC3=O)CC1 (centres unmarked) [Compound I-2047]	10 to 100
O=C1NC(c2cc(F)ccc2Cl)c2c1cc(-c1cnn(C(F)F)c1)cc2-c1nc2cc(C(F)(F)F)cc(F)c2[nH]1 (centres unmarked) [Compound I-2048]	1 to 10
O=C1NC(c2cc(F)ccc2Cl)c2c(Nc3n[nH]c4c(C(F)(F)F)cc(F)cc34)cc(-c3ccc4ncnn4c3)cc21 (centres unmarked) [Compound I-2049]	≤ 0.1
Cn1nc(Nc2cc(-c3ccc4ncnn4c3)cc3c2C(c2cc(F)ccc2Cl)NC3=O)c2cc(F)cc(C(F)(F)F)c21 (centres unmarked) [Compound I-2050]	0.5 to 1
O=C(Nc1cccc2c1[C@H](C1CCCCC1)NC2=O)c1cc(F)cc(C(F)(F)F)c1 [Compound I-2052]	1 to 10
O=C(Nc1cccc2c1[C@@H](C1CCCCC1)NC2=O)c1cc(F)cc(C(F)(F)F)c1 [Compound I-2053]	10 to 100
O=C(Nc1cccc2c1C(C(=O)NC1CCCCC1)NC2=O)c1cc(F)cc(C(F)(F)F)c1 (centres unmarked) [Compound I-2054]	10 to 100
O=C(Nc1cc(-c2cnn(S(=O)(=O)C(F)F)c2)cc2c1C(c1cc(F)ccc1Cl)NC2=O)c1cc(F)cc(C(F)(F)F)c1 (centres unmarked) [Compound I-2055]	≤ 0.1
O=C1NC(c2cc(F)ccc2Cl)c2c(Nc3cn[nH]c3)cc(Br)cc21 (centres unmarked) [Compound I-2056]	10 to 100
O=C(Nc1cccc2c1[C@@H](CC1CCCCC1)NC2=O)c1cc(F)cc(C(F)(F)F)c1 [Compound I-2057]	1 to 10
O=C(Nc1cccc2c1[C@H](CC1CCCCC1)NC2=O)c1cc(F)cc(C(F)(F)F)c1 [Compound I-2058]	0.5 to 1
O=C1NC(c2cc(F)ccc2Cl)c2c(Nc3nnc4n3CCCC4)cc(-c3ccc4ncnn4c3)cc21 (centres unmarked) [Compound I-2059]	10 to 100
O=C(Nc1cccc2c1C(C1CCCCC1O)NC2=O)c1cc(F)cc(C(F)(F)F)c1 (centres unmarked) [Compound I-2060]	10 to 100
